In general, IC50 refers to the concentration needed to halve the response being measured. What is called solubility is how much of the substance goes into solution per volume. A low value points to little dissolved substance. The Aqueous solubility is how much of the substance goes into solution per volume.

Converted amounts (≈) assume the structure as drawn. Bounds are passed on as bounds.

Data set [1] addresses neutrophil elastase (Homo sapiens (Human), UniProt P08246). Put plainly: Human Neutrophil Elastase Assay. The data set is classed as biochemical. As to conditions: substrate MeOSuc-Ala-Ala-Pro-Val-AMC.
Data set [2] relates to human hepatocytes. Briefly: Metabolic stability with human hepatocytes. The data set is classed as in vitro ADME. As to conditions: 1 μM compound, well stirred model. How it is done:
Assay for the Determination of Metabolic Stability with Human Hepatocytes
The metabolic degradation of the test compound is assayed in a human hepatocyte suspension. Human hepatocytes (typically cryopreserved) are incubated in an appropriate buffer system (e.g. Dulbecco's modified eagle medium plus 3.5 μg glucagon/500 mL, 2.5 mg insulin/500 mL and 3.75 mg/500 mL hydrocortison) containing 5% species serum. Following a (typically) 30 min preincubation in an incubator (37° C., 10% CO2), 5 μl of test compound solution (80 μM; from 2 mM stock solution in DMSO diluted 1:25 with medium) are added into 395 μl hepatocyte suspension (cell density in the range 0.25-5*10^6 cells/mL, typically 1*10^6 cells/mL; final concentration of test compound 1 μM, final DMSO concentration 0.05%). The cells are incubated for six hours (incubator, orbital shaker) and samples (25 μl) are taken at 0, 0.5, 1, 2, 4 and 6 hours. Samples are transferred into acetonitrile and pelleted by centrifugation (5 min) The supernatant is transferred to a new 96-deepwell plate, evaporated under nitrogen and resuspended. The decline of parent compound is analyzed by LC-MS/MS.
The intrinsic clearance CL_[…] is calculated as follows: CL_[…]=Dose/AUC=(Co/CD)/(AUD+clast/k)*1,000/60 (Co: initial concentration in the incubation [μM], CD: cell density of vital cells [10^6 cells/mL], AUD: area under the data [μM*h], clast: concentration of last data point [μM], k: slope of the regression line for parent decline [h^−1])
The calculated in vitro hepatic intrinsic clearance Q h can be scaled up to the intrinsic in vivo hepatic clearance and used to predict hepatic in vivo blood clearance (CL) by the use of a liver model (well stirred model): CL_[…]_INVIVO[ml/min/kg]=(CL_[…][μL/min/10^6cells]*hepatocellularity[10^6cells/g liver]*liver factor[g/kg bodyweight])/1,000 CL[ml/min/kg]=CL_[…]_INVIVO[ml/min/kg]*hepatic blood flow [ml/min/kg]/(CL_[…]_INVIVO[ml/min/kg]+hepatic blood flow[ml/min/kg]) Qh[%]=CL[ml/min/kg]/hepatic blood flow[ml/min/kg]) (Hepatocellularity, human: 120*10^6 cells/g liver; liver factor, human: 25.7 g/kg bodyweight; blood flow, human: 21 ml/(min*kg)) Based on this assay.
The calculated in vitro hepatic intrinsic clearance values of selected compounds in the metabolic stability assay with human hepatocytes described above are listed in Table 4.

Data set [3] in a line: Aqueous solubility. The data set is classed as physicochemical. To be noted: McIlvaine buffer pH 6.8, 2.5% DMSO; for solubility at 24 h: McIlvaine buffer with 2.5% DMSO, aqueous buffer, kinetic from dmso stock; for Aqueous solubility: 24 h. The protocol: Assay for Determination of Aqueous Solubility
Starting from a 10 mM DMSO stock solution, aliquots are diluted with acetonitrile/water (1/1) and McIlvaine buffer pH 6.8, respectively. After 24 h of shaking, the solutions or suspensions are filtered and analyzed by LC-UV. The amount dissolved in buffer is compared to the amount dissolved in the acetonitrile/water (1/1) solution. Solubility is measured from 0.001 to 0.125 mg/ml at a DMSO concentration of 2.5%. If more than 90% of the compound is dissolved in buffer, the value is marked with “>”.

Data set [4] can be described thus: Metabolic stability with human liver microsomes. It counts as in vitro ADME. As to conditions: pooled human liver microsomes, 1 μM compound, 37° C.; for half-life at 1 μM: pH 7.6, read-out: t1/2 INVITRO. The protocol: Assay for the Determination of Metabolic Stability with Human Liver Microsomes
The metabolic degradation of the test compound is assayed at 37° C. with pooled human liver microsomes. The final incubation volume of 100 μl per time point contains TRIS buffer pH 7.6 (0.1 M), magnesium chloride (5 mM), microsomal protein (1 mg/ml) and the test compound at a final concentration of 1 μM. Following a short preincubation period at 37° C., the reactions are initiated by addition of beta-nicotinamide adenine dinucleotide phosphate, reduced form (NADPH, 1 mM) and terminated by transferring an aliquot into acetonitrile after different time points. Additionally, the NADPH-independent degradation is monitored in incubations without NADPH, terminated at the last time point. The [%] remaining test compound after NADPH independent incubation is reflected by the parameter c(control) (metabolic stability). The quenched incubations are pelleted by centrifugation (10,000 g, 5 min) An aliquot of the supernatant is assayed by LC-MS/MS for the amount of parent compound.
The half-life (t1/2 INVITRO) is determined by the slope of the semilogarithmic plot of the concentration-time profile. The intrinsic clearance (CL_[…]) is calculated by considering the amount of protein in the incubation: CL_[…][μl/min/mg protein]=(ln 2/(half-life[min]*protein content[mg/ml]))*1,000.
The half-life (t1/2 INVITRO) values of selected compounds in the metabolic stability assay human liver microsomes described above are listed in Table 3.
In general terms: Liver microsomes are a subcellular fraction often used to study metabolism.

Chain of neutrophil elastase (P08246 30-247): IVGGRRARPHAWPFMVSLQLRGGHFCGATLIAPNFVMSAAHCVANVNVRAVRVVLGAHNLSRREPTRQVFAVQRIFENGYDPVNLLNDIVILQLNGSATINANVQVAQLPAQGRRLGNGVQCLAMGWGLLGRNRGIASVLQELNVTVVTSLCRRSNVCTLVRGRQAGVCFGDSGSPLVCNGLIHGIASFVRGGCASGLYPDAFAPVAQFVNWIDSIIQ

Compound `CC(=O)C1=C(C)N(c2cccc(C(F)(F)F)c2)C(=O)N(C)C1c1ccc(C#N)cc1C(=O)NCC(C)(C)O` (centres unmarked) [Example 1.22] came in with an IC50 in data set [1] of 1.4 nM. The compound also registered a Qh in data set [2] of 15%. Also, the concentration in solution in data set [3] (solubility at 24 h) was 65 µg/mL (≈ 123 µM). For the same compound, the half-life at 1 μM in data set [4] is over 2.17 h.
For `CC(=O)C1=C(C)N(c2cccc(C(F)(F)F)c2)C(=O)N(C)C1c1ccc(C#N)cc1C(=O)N1CCn2ncnc2C1` (centres unmarked) [Example 1.73], in data set [1], the IC50 is under 1 nM. In data set [2], this compound returned a Qh of 19%. For the same compound, the concentration in solution in data set [3] (solubility at 24 h) came to 73 µg/mL (≈ 130 µM). The half-life at 1 μM in data set [4] was found to be 2 h.
`CC(=O)C1=C(C)N(c2cccc(C(F)(F)F)c2)C(=O)N(C)C1c1ccc(C#N)cc1C(=O)NCCF` (centres unmarked) [Example 1.10] registered an IC50 in data set [1] of under 1 nM. In data set [2], this compound displayed a Qh of 27%. In addition, the Aqueous solubility in data set [3] is 66 µg/mL. For the same compound, the “t1/2 INVITRO” value in data set [4] is over 2.17 h.
For `CC(=O)C1=C(C)N(c2cccc(C(F)(F)F)c2)C(=O)N(C)[C@@H]1c1ccc(C#N)cc1-c1ccc(=O)n(C)c1` [Example 16, 4-[(R)-5-Acetyl-3,6-dimethyl-2-oxo-1-(3-trifluoromethyl-phenyl)-1,2,3,4-tetrahydro-pyrimidin-4-yl]-3-(1-methyl-6-oxo-1,6-dihydro-pyridin-3-yl)-benzonitrile], in data set [1], the IC50 was under 1 nM. The compound also had a Qh in data set [2] of 5%. The same compound came in with a solubility at 24 h in data set [3] of 73 µg/mL (≈ 140 µM). Moreover, the half-life at 1 μM in data set [4] is over 2.17 h.
`CC(=O)C1=C(C)N(c2cccc(C(F)(F)F)c2)C(=O)N(C)C1c1ccc(C#N)cc1C(=O)NC1CC1` (centres unmarked) [Example 1.8] yielded an IC50 in data set [1] of under 1 nM. In addition, in data set [2], the Qh is listed as 22%. Further, the Aqueous solubility in data set [3] worked out at 76 µg/mL. In addition, in data set [4], the “t1/2 INVITRO” value amounted to 1.83 h.
In the same order, the values of `CNC(=O)c1cc(C#N)ccc1[C@@H]1C(C(C)=O)=C(C)N(c2cccc(C(F)(F)F)c2)C(=O)N1C` [Example 13.1] are under 1 nM, 16%, 51 µg/mL and over 2.17 h.
`CC(=O)C1=C(C)N(c2cccc(C(F)(F)F)c2)C(=O)N(C)C1c1ccc(C#N)cc1C(=O)NCC#N` (centres unmarked) [Example 1.6] had an IC50 in data set [1] of under 1 nM. In data set [2], this compound showed a Qh of 25%. Moreover, the Aqueous solubility in data set [3] came to 70 µg/mL. Besides, the “t1/2 INVITRO” value in data set [4] turned out to be 2.17 h.
In turn, `CC(=O)C1=C(C)N(c2cccc(C(F)(F)F)c2)C(=O)N(C)[C@@H]1c1ccc(C#N)cc1-c1ccn(C)c(=O)c1` [Example 17, 4-[(R)-5-Acetyl-3,6-dimethyl-2-oxo-1-(3-trifluoromethyl-phenyl)-1,2,3,4-tetrahydro-pyrimidin-4-yl]-3-(1-methyl-2-oxo-1,2-dihydro-pyridin-4-yl)-benzonitrile] returned a concentration for half-maximal inhibition (IC50) in data set [1] of under 1 nM. For the same compound, the Qh in data set [2] is 6%. For the same compound, the solubility at 24 h in data set [3] was determined as 62 µg/mL (≈ 119 µM). The half-life at 1 μM in data set [4] is over 2.17 h.

For the origin of these results see US9290457B2, “Substituted dihydropyrimidinones and their use as inhibitors of neutrophil elastase activity” (Boehringer Ingelheim International GmbH, priority 2014, dated 2016).
